Data published in patent US6713268B2, “Methods of identifying ocular hypotensive compounds having reduced hyperpigmentation” (Allergan, Inc., priority 2001, dated 2004).
Entries after “also recorded” stand apart in the source; their conditions may differ. Read-outs that look alike come from different tables or passages of the source.

How the values were obtained:
melanocytes = details: cited from earlier work
[1] = tested on: S91 "Cloudman" melanoma cell line; details: cited from earlier work
[2] = tested on: S91 melanoma cells co-cultured with human dermal fibroblasts; assay: DOPA oxidase (tyrosinase) activity in S91 melanoma cells in transwell co-culture with human dermal fibroblasts; assay type: cell-based; details: increasing concentrations 10^−9 to 10^−5 M, 4 days
Procedure: (§1) Human dermal fibroblasts and S91 melanoma cells are cultured in low-glucose Dulbecco's Modified Eagle Medium (DMEM) containing 10% fetal calf serum (FCS) supplemented with 2 mM L-glutamine, 100 mg/l sodium pyruvate, 100 U/ml penicillin G, 100 […] and 250 ng/ml amphotericin B at 37° C. with 5% CO2. For tyrosinase and melanogenesis assays, the FCS concentration is reduced to 1% during the incubation period.
(§2) S91 cells are plated at 10^5 cells/well in 6-well plates and allowed to attach overnight. For transwell studies, cells from a human dermal fibroblast cell line are plated on the transwell insert at 10^3 cells/well and allowed to attach overnight. Melanoma cells are plated in an initial excess over fibroblasts; preferably at a ratio between about 1:30 and about 1:1000, more preferably at a ratio between about 1:50 and about 1:300; most preferably at a ratio of about 1:100. For primary cells, cells are cultured at a ratio of fibroblasts to melanocytes of about 1:2 to about 1:50; preferably about 1:5 to about 1:20, even more preferably about 1:10. The added test agents generally stimulate fibroblast proliferation; thus the use of the transwell permits separate enumeration of the melanocytes.
(§3) Test agents are added every other day of the assay period, with no exchange of medium.
(§4) For DOPA oxidase (tyrosinase) activity, the cells were incubated for four days in this case and the S91 cells were collected in a lysis buffer. The cell suspension was subjected to one freeze/thaw cycle (−80° C.) and vortexed to extract the cytosolic cell contents. After centrifugation for 30 minutes at 16,000×g at 4° C., aliquots of the supernatant were used in a Bradford assay to determine protein concentration or incubated with d-DOPA or l-DOPA as substrates. The optical density was measured for up to 6 hours at 490 nm.
Cloudman S91 melanoma cells (ATCC CCL-53.1) were cultured either in the presence or absence of human dermal fibroblast cells (ATCC CRL-2097) as described above. The added drugs were: arachidonic acid, anandamide, Compound C, Compound A, Compound D, Compound […], and Compound E.

S91 melanoma cells [3] = assay: Cell proliferation assay of S91 melanoma cells; assay type: cell-based
Procedure: as §1, §2, §3
For the cell proliferation assay, melanoma cells were washed with Hanks BSS, trypsinized and counted with a hemacytometer.

FP receptor [4] = molecular target: T1, FP receptor (Homo sapiens, UniProt P43088); assay: FLIPR calcium signaling in HEK-293 cells stably transfected with the human FP receptor; assay type: cell-based; parameters: expressed in transfected cells; host or cells: HEK-293; details: HEK-293 human FP; for concentration at which FP receptor stimulation plateaus / concentration at which the FP receptor is stimulated (calcium signal): FLIPR, Fluo-4; for concentration at which the FP receptor is stimulated (calcium signal): onset of effect; for stimulation of the human FP receptor: calcium signal, about 10^−11 to 10^−8 M
T1 sequence (P43088 whole entry): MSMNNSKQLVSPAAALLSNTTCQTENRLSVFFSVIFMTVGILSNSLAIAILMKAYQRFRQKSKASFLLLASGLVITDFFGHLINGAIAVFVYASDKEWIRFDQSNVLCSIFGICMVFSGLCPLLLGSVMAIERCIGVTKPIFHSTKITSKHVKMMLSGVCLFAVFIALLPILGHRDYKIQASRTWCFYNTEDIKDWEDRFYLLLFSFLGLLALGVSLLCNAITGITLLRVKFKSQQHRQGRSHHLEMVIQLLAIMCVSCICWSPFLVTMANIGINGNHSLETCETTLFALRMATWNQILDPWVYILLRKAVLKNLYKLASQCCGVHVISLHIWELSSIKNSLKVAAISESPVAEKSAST
Procedure: Human embryonic kidney cells of line HEK-293 are stably transfected with an expression vector encoding the human FP receptor. Cells were cultured in low Glucose Dulbecco's Modified Eagles Medium containing 10% fetal calf serum, 2 mM L-glutamine, 100 mg/l sodium pyruvate, 100 U/ml penicillin G, […] streptomycin, 250 μg/ml G418 200 μg/ml hygromycin and 250 ng/ml amphotericin B at 37° C. with 5% CO2. Cells were seeded on poly-D-lysine-coated 96-well plates at 5000/well, and cultured overnight before the experiment. The cells are cultured in the presence, respectively, of: latanoprost-free acid, fluprostenol, Compound A, Compound B, and assayed using a FLIPR (fluorescence imaging plate reader) using the calcium activated fluorescent dye Fluo-4 as an indicator of free intracellular calcium. As stimulation of the FP receptor is known to cause in increase in free intracellular calcium release, this experiment is designed to determine when the test compounds are capable of stimulating the human FP receptor.

iris [5] = details: monkey, in vivo
Procedure: (§5) The other eye is left untreated. A total of 8 animals is treated within each treatment group. At the end of the one year study period darkening of the treated eye is compared to a photograph of the same eye prior to treatment, and scored using the following scale:

S91 melanoma cells [6] = assay: Melanin assay in S91 cells; assay type: cell-based; details: S91 cells not in transwell cultures
Procedure: as §1
as §2, with “The added test agents generally stimulate fibroblast proliferation; thus the use of the transwell permits separate enumeration of the melanocytes.” left out
For the melanin assay, cells were incubated for 5 days. […] After centrifugation for 30 min at 16,000×g at room temperature, the optical density of the supernatant was measured at 475 nm and compared to a standard curve obtained with synthetic melanin.

S91 melanoma cells [7] = assay: DOPA oxidase (tyrosinase) activity in S91 melanoma cells cultured alone; assay type: cell-based
Procedure: as §1, §2, §3, §4
Cloudman S91 melanoma cells (ATCC CCL-53.1) were cultured either in the presence or absence of human dermal fibroblast cells (ATCC CRL-2097) as described above. […]

iris [8] = details: patients; cited from earlier work
iris [9] = assay: One year topical monkey study, darkening of the iris; details: once daily 35 microliter drop in one eye for one year; scale 0-3; untreated eyes baseline 1
Procedure: as §5

S91 cells = details: native S91 cells; cited from earlier work
FP receptor [10] = molecular target: T1, FP receptor; parameters: host or cells: S91 'Cloudman' melanoma cells, stably transfected; details: cited from earlier work

melanocyte-stimulating hormone [MSH]
activity of tyrosinase (melanocytes): appears to stimulate | expression or activity of TRP2 and TRP1 (melanocytes): does not increase | melanogenesis / melanin production [1]: able to simulate melanogenesis

O=C(O)CCC/C=C\C[C@@H]1[C@@H](/C=C/[C@@H](O)COc2cccc(C(F)(F)F)c2)[C@H](O)C[C@@H]1O (racemic) [fluprostenol]
tyrosinase (DOPA oxidase) activity [2]: stimulate increased production of tyrosinase; also recorded: dose-dependent effect | S91 cell proliferation (S91 melanoma cells [3]; 10^−9 to 10^−5 M, with or without fibroblast co-cultures): No effect | concentration at which FP receptor stimulation plateaus (FP receptor [4]): about 10^−8 M | concentration at which the FP receptor is stimulated (calcium signal) (FP receptor [4]): about 10^−11 M | stimulation of the human FP receptor (FP receptor [4]): stimulate

CCCCC/C=C\C/C=C\C/C=C\C/C=C\CCCC(=O)NCCO [anandamide]
tyrosinase (DOPA oxidase) activity [2]: no significant increase

CCNC(=O)CCC/C=C\C[C@@H]1[C@@H](/C=C/[C@@H](O)CCc2ccccc2)[C@H](O)C[C@@H]1O [Compound A]
tyrosinase (DOPA oxidase) activity [2]: no significant changes | darkening of the treated eye (iris), score (iris [5]): about 1.1

CC(C)OC(=O)CCC/C=C\C[C@@H]1[C@@H](CC[C@@H](O)CCc2ccccc2)[C@H](O)C[C@@H]1O [latanoprost]
melanin formation (S91 melanoma cells [6]; 10^−5 M): enhancement | melanin formation (S91 melanoma cells [6]; up to 10^−6 M): no appreciable change | tyrosinase (DOPA oxidase) activity [2]: stimulate increased production of tyrosinase; also recorded: dose-dependent effect | S91 cell proliferation (S91 melanoma cells [3]; 10^−5 M, with or without fibroblasts): decrease | S91 cell proliferation (S91 melanoma cells [3]; 10^−9 to 10^−6 M, with or without fibroblasts): little effect | tyrosinase activity (S91 melanoma cells [7]; S91 cells not in transwell cultures, 10^−5 M): enhancement | DOPA oxidase activity (S91 melanoma cells [7]; S91 cells not in transwell cultures, up to 10^−6 M): no appreciable change | human eyes with increase in brown pigment in the iris (iris [8]): 5-15% | concentration at which FP receptor stimulation plateaus (FP receptor [4]): about 10^−8 M | concentration at which the FP receptor is stimulated (calcium signal) (FP receptor [4]): about 10^−11 M | stimulation of the human FP receptor (FP receptor [4]): stimulate | darkening of the treated eye (iris), score (iris [9]): 2

CCCCC[C@H](O)/C=C/[C@@H]1[C@@H](C/C=C\CCCC(=O)O)[C@@H](O)C[C@H]1O [PGF2α]
calcium signal (S91 cells): failed to stimulate a calcium signal | melanogenesis / melanin production [1]: only at quite high concentrations | DOPA oxidase (tyrosinase) activity and melanin formation compared with native S91 cells (FP receptor [10]; FP receptor transfectants): indistinguishable | calcium signal (FP receptor [10]; FP receptor transfected S91 cells): did not generate a calcium signal

CCCCC/C=C\C/C=C\C/C=C\C/C=C\CCCC(=O)O [arachidonic acid]
tyrosinase (DOPA oxidase) activity [2]: significant increase | tyrosinase (DOPA oxidase) activity (S91 melanoma cells [7]; S91 without fibroblasts, increasing concentrations 10^−9 to 10^−5 M, 4 days): smaller increase
